Results from ChEMBL document CHEMBL1201862, “PubChem BioAssay data set” (2004).
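Following 48 hours of exposure in 96-well plates, responses at five concentrations were used to interpolate endpoints linearly. GI50 = concentration required for 50% inhibition of growth.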 Calls of active or inactive are those of the source. Cut-off read from the data, not from the text of the source: active = GI50 up to about 1.1 µM and inactive = higher.

Assays:
Experiment in all cases: inhibition of tumour cell growth, NCI panel, 48 h
UACC-257 = test system: UACC-257
MDA-MB-231 = test system: MDA-MB-231
786-0 = test system: 786-0
SK-MEL-2 = test system: SK-MEL-2
SK-MEL-5 = test system: SK-MEL-5
HCT-15 = test system: HCT-15
MDA-MB-435 = test system: MDA-MB-435
NCI-H226 = test system: NCI-H226
SF-268 = test system: SF-268
CCRF-CEM = test system: CCRF-CEM
A498 = test system: A498
HCC 2998 = test system: HCC 2998
SF-295 = test system: SF-295
OVCAR-4 = test system: OVCAR-4
MCF7 = test system: MCF7
OVCAR-3 = test system: OVCAR-3
U-251 = test system: U-251
A549 = test system: A549
DU-145 = test system: DU-145
UACC-62 = test system: UACC-62

Row | SMILES | GI50 (UACC-257) | GI50 (MDA-MB-231) | GI50 (786-0) | GI50 (SK-MEL-2) | GI50 (SK-MEL-5) | GI50 (HCT-15) | GI50 (MDA-MB-435) | GI50 (NCI-H226) | GI50 (SF-268) | GI50 (CCRF-CEM) | GI50 (A498) | GI50 (HCC 2998) | GI50 (SF-295) | GI50 (OVCAR-4) | GI50 (MCF7) | GI50 (OVCAR-3) | GI50 (U-251) | GI50 (A549) | GI50 (DU-145) | GI50 (UACC-62)
1 | CCCCCOC(=O)c1cc2cc(CCl)ccc2oc1=O | 1.09 µM (active) | 16.5 µM (inactive) | 3.02 µM (inactive) | 0.466 µM (active) | 2.62 µM (inactive) | 3.69 µM | 1.85 µM (inactive) | 15.7 µM (inactive) | 13.2 µM (inactive) | 13.1 µM (inactive) | 2.44 µM (inactive) | 14.9 µM (inactive) | 13.7 µM (inactive) | 4.13 µM (inactive) | 10.4 µM (inactive) | 2.82 µM (inactive) | 16.8 µM (inactive) | 1.97 µM (inactive) | 3.86 µM (inactive) | 1.64 µM (inactive)
2 | CCC(c1c[nH]c2ccc(Br)cc12)c1c[nH]c2ccc(Br)cc12 | 11.6 µM (inactive) | 11.1 µM (inactive) | 3.56 µM (inactive) | 10.6 µM (inactive) | 8.11 µM (inactive) | 4.01 µM | 3.13 µM (inactive) | 11.8 µM (inactive) | 5.97 µM (inactive) | 2.95 µM (inactive) | 3.79 µM (inactive) | 2.19 µM (inactive) | 5.92 µM (inactive) | 2.75 µM (inactive) | 3.98 µM (inactive) | 3.96 µM (inactive) | 3.72 µM (inactive) | 3.72 µM (inactive) | 2.88 µM (inactive) | 10.2 µM (inactive)
3 | O=C1OC(C2Cc3ccc4ccccc4c3C2=O)c2ccccc21 (stereo not given) | 70.8 µM (inactive) | > 100 µM (inactive) | 46.3 µM (inactive) | 47.8 µM (inactive) | 22 µM (inactive) | 34.8 µM | 51.9 µM (inactive) | 19.5 µM (inactive) | 33.8 µM (inactive) | 31 µM (inactive) | > 100 µM (inactive) | 55.5 µM (inactive) | 32.4 µM (inactive) | 24.4 µM (inactive) | 42.8 µM (inactive) | 30.5 µM (inactive) | 32.7 µM (inactive) | 36.9 µM (inactive) | > 100 µM (inactive) | 33.7 µM (inactive)
4 | COc1cc(C2SCC(=O)N2c2cc(Cl)c(Cl)cc2Cl)cc(OC)c1OC (stereo not given) | 36.8 µM (inactive) | > 100 µM (inactive) | 38.2 µM (inactive) | 63 µM (inactive) | 25.6 µM (inactive) | 29.7 µM | 30.5 µM (inactive) | 63.1 µM (inactive) | 90.2 µM (inactive) | 25.4 µM (inactive) | 63 µM (inactive) | 32.1 µM (inactive) | 49.8 µM (inactive) | 38.6 µM (inactive) | 37.7 µM (inactive) | 22.2 µM (inactive) | 77.8 µM (inactive) | 38.5 µM (inactive) | 41.3 µM (inactive) | 22.2 µM (inactive)
5 | CCc1nnc(S)n1/N=C\c1ccc(-c2ccccc2Cl)o1 | 53.5 µM (inactive) | 42.2 µM (inactive) | 30.8 µM (inactive) | 30.8 µM (inactive) | 14.3 µM (inactive) | 28.2 µM | 21 µM (inactive) | 17.5 µM (inactive) | 32.1 µM (inactive) | 27.5 µM (inactive) | 36.6 µM (inactive) | 27.3 µM (inactive) | 46.2 µM (inactive) | 39.4 µM (inactive) | 32 µM (inactive) | 40.6 µM (inactive) | 32.3 µM (inactive) | 32.6 µM (inactive) | 41.3 µM (inactive) | 40.6 µM (inactive)
6 | CCOC(=O)c1ccc2c(=O)n3c(C(=O)OCC)ccc3c(=O)n12 | > 100 µM (inactive) | > 100 µM (inactive) | > 100 µM (inactive) | > 100 µM (inactive) | > 100 µM (inactive) | > 100 µM | > 100 µM (inactive) | > 100 µM (inactive) | > 100 µM (inactive) | > 100 µM (inactive) | > 100 µM (inactive) | > 100 µM (inactive) | > 100 µM (inactive) | > 100 µM (inactive) | > 100 µM (inactive) | > 100 µM (inactive) | > 100 µM (inactive) | > 100 µM (inactive) | > 100 µM (inactive) | > 100 µM (inactive)
